“Also recorded” adds a separate entry of the source.
Key:
BRD4 = molecular target: T1, BRD4 (Mus musculus, UniProt Q9ESU6); assay: Western blot of excised cancer tissue, BRD4; format: in vivo
T1 construct: Western blot after PROTAC (ARV-771 release, VHL recruiting)
Protocol: (§1) The control group was administered saline (10 mg/kg) once every 3 days for 15 days through the tail vein (total 4 administrations). The comparison group was administered ARV-771 (10 mg/kg) once every 3 days for 15 days through the tail vein (total 4 administrations). The example group was administered ECMal-PROTAC 10 mg/kg (wquiv. to ARV-771) of example 1 once every 3 days for 15 days through the tail vein (total 4 administrations).

4T1 tumor = assay: In vivo anticancer efficacy, tumor size in 4T1 cancer animal model; set-up: species or system mouse
Protocol: (§2) 5-week-old female Balb/c and Balb/c nu/nu mice were purchased from NaraBio, Inc (Seoul, Republic of Korea). The mice underwent a 2-week acclimatization period before the example. The mice were raised under free-feeding conditions in a breeding room maintained at a temperature of 22±2° C. and humidity of 40-60% during the example. The light and dark cycle was regulated at 12-hour intervals. All examples were conducted in compliance with the relevant laws and institutional guidelines of the KIST Institutional Animal Care and Use Committee (IACUC; Approval No.: 2021-143).
Cancer animal models were prepared by inoculating 1×10^6 4T1 cells into the left thigh of the mice, and raising them until the tumor volume reached 50-80 mm^3.
For the preparation of the control group, the comparison group, and the example group, mice were randomly divided into groups of 5.
as §1
Tumor size and body weight were measured every two days for the control group, the comparison group, and the example group.

c-Myc = assay: Western blot, c-Myc level in 4T1 cells; format: cell-based, mouse; conditions: 0 to 10 μM, 24 hours
Protocol: Accordingly, Western blot analysis was performed to confirm the anticancer ability by evaluating the presence or absence of degradation of BRD4 and other related proteins (e.g., c-Myc and Bcl-2) when cancer cells were treated with the complex for cancer targeting (ECMal-PROTAC) of example 1. The complex for cancer targeting (ECMal-PROTAC) of example 1 and ARV-771 were prepared as samples.
First, 1×10^5 4T1 cells were dispensed into each well of a 6-well culture plate and cultured for 24 hours at 37° C. and 5% carbon dioxide atmosphere. The cell culture medium was supplemented with various concentrations of ARV-771 (0 to 10 μM) or the complex for cancer targeting (ECMal-PROTAC) of example 1 (0 to 10 μM), and cultured at 37° C. for 24 hours. After the culture was completed, the cells were washed 3 times with PBS, and lysed with a lysis buffer containing 1% […]. Cell debris from the recovered lysate was removed by centrifugation at 12,000 rpm for 25 minutes. After recovering the supernatant, the protein amount was measured using a BCA kit. The supernatant was loaded onto a 10% sodium dodecyl sulfate-polyacrylamide gel. Electrophoresis (SDS-PAGE) was performed, followed by blotting onto a polyvinylidene difluoride (PVDF) membrane. […] The immunoreactive bands on the PVDF membrane were analyzed through an ECL (enhanced chemiluminescence) system.

[1] = tested on: major organs and cancer tissue; assay: Ex vivo biodistribution in major organs and cancer tissue; set-up: species or system mouse; conditions: 24 hours after i.v. 3 mg/kg
Protocol: as §2
Cancer animal models were prepared by inoculating 1×10^6 4T1 cells into the left thigh of the mice, and raising them until the tumor volume reached 150-200 mm3.
Samples were prepared as follows to analyze the in vivo therapeutic effect of the complex for cancer targeting (ECMal-PROTAC) of example 1. A Cy5.5-BSA solution (Cy5.5-Alb, Preparation Example 1, 200 μM) diluted with PBS was co-incubated by mixing it with an ECMal-PROTAC aqueous solution (140 μM) of example 1 at a 1:1 volume ratio. […]
To analyze the sample distribution in the excised cancer tissue, the excised major organs and cancer tissue were imaged with the IVIS Lumina Series III system (PerkinElmer, Waltham, MA, USA) and analyzed with Living Image software (PerkinElmer).

[2] = Particle size by DLS before and after binding to albumin; format: physicochemical; conditions: before and after binding to BSA
Protocol: A BSA solution (200 μM) diluted with PBS was co-incubated by mixing it with an ECMal-PROTAC aqueous solution (140 μM) of example 1 at a 1:1 volume ratio.

thiol-blocked BSA = thiol-blocked BSA (Bos taurus, UniProt P02769); assay: Selective binding: thiol-blocked BSA, RP-HPLC; set-up: species or system bovine; conditions: thiol-blocked BSA 200 μM, ECMal-PROTAC 140 μM, up to 60 minutes
Sequence of thiol-blocked BSA (P02769 25-607): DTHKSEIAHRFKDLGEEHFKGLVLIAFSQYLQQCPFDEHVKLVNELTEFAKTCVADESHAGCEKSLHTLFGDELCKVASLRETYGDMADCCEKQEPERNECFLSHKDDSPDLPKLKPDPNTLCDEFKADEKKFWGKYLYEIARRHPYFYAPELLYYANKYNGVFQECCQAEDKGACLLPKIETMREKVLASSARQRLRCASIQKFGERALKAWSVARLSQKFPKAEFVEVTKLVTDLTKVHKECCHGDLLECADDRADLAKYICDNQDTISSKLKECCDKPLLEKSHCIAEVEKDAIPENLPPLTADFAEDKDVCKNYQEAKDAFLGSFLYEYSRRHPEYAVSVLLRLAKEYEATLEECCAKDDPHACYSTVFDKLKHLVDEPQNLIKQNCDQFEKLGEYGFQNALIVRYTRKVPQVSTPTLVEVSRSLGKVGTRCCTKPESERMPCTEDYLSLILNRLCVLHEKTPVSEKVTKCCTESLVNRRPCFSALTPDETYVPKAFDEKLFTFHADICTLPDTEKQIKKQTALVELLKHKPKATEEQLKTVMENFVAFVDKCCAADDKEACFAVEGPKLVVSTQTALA
Protocol: To confirm whether the binding of ECMal-PROTAC of example 1 and albumin is specific, thiol-blocked BSA was used. Specifically, thiol-blocked BSA was prepared by mixing 4-maleimidobutyric acid and BSA with a cyc34 blocking agent. The thiol-blocked BSA was diluted with PBS to prepare a solution (200 μM). This was co-incubated by mixing it with the ECMal-PROTAC aqueous solution (140 μM) of example 1 at a 1:1 volume ratio. The culture was collected at incubation times of 0 minutes, 5 minutes, 30 minutes, and 60 minutes. It was quenched with mercaptoethanol, and HPLC spectra for each sample were acquired through concentration gradient of the eluent (ACN/H2O, 20/80 to 80/20 (v/v), 30 minutes).
From the HPLC results for the BSA and complex for cancer targeting (ECMal-PROTAC) mixture in Experimental Example 1 and the thiol-blocked BSA and complex for cancer targeting (ECMal-PROTAC) mixture in Experimental Example 2, the reduction in the HPLC peak area associated with the complex for cancer targeting (ECMal-PROTAC) was quantified.

Q: With `Cc1ncsc1-c1ccc([C@H](C)NC(=O)[C@@H]2C[C@@H](OC(=O)CCCCn3nnc4c3CCC3C(CC4)C3COC(=O)NCCOCCOCCNC(=O)CCN3C(=O)C=CC3=O)CN2C(=O)[C@@H](NC(=O)COCCCOCCNC(=O)C[C@@H]2N=C(c3ccc(Cl)cc3)c3c(sc(C)c3C)-n3c(C)nnc32)C(C)(C)C)cc1` (stereo partly drawn) [ECMal-PROTAC] as the molecule, how does the “BRD4 level in cancer tissue vs control” value (BRD4; Western blot, 10 mg/kg) read?
A: much lower levels

Q: And the “BRD4 level in cancer tissue, example group vs comparison group” value (BRD4; Western blot, vs ARV-771 group (so in the source))?
A: no significant difference

Q: What about the “relative expression level of BRD4, fold lower than control group” value (BRD4; cancer tissue, FIG. 32) of the same molecule?
A: 7.5 times

Q: What about the “cancer size / increase in cancer size” value (4T1 tumor; 10 mg/kg equiv. to ARV-771, 15 days) of the same molecule?
A: significantly reduced

Q: What about the “tumor volume, fold smaller than comparison group” value (4T1 tumor; 10 mg/kg equiv. to ARV-771, after 15 days, vs ARV-771 10 mg/kg) of the same molecule?
A: 5.3 times

Q: And the “tumor volume, fold smaller than control group” value (4T1 tumor; 10 mg/kg equiv. to ARV-771, after 15 days, vs saline)?
A: 6.1 times

Q: What about the “tumor volume after 15 days” value (4T1 tumor; 10 mg/kg equiv. to ARV-771, tail vein, once every 3 days for 15 days) of the same molecule?
A: 176.13±81.62 mm3

Q: What about the “tumor size (optical image)” value (4T1 tumor; excised after 15 days (FIG. 26)) of the same molecule?
A: much smaller tumor size than the other groups

Q: What about the c-Myc level (c-Myc) of the same molecule?
A: reduces the levels; also recorded: reduced expression

Q: What about the “elimination through the kidneys” value [1] of the same molecule?
A: very low probability of kidney excretion

Q: What about the “change in particle size on binding to albumin” value [2] of the same molecule?
A: no significant change in particle size

Q: What about the “interaction with thiol-blocked BSA” value (thiol-blocked BSA) of the same molecule?
A: did not form an interaction

Reference: patent publication US20260325542A1, “CANCER TARGETING COMPLEX, AND COMPOSITION COMPRISING SAME FOR PREVENTING OR TREATING CANCER” (EWHA UNIVERSITY - INDUSTRY COLLABORATION FOUNDATION, priority 2023, published 2026)
